Assay results from US20220193072A1, “METHODS OF TREATING BREAST CANCER WITH TETRAHYDRONAPHTHALENE DERIVATIVES AS ESTROGEN RECEPTOR DEGRADER” (Arvinas Operations, Inc., priority 2020, published 2022).

Columns and labels:
[1] = system: MCF7 cells; assay: Live-cell imaging growth studies and EC50 for growth inhibition, MCF7; assay type: cell-based; details: Homo sapiens, read-out: Approximate Half-maximal Effective Concentration (EC50) for growth inhibition
Protocol: (§1) MCF7, T47D, T47D ESR1 Y537S or T47D ESR1 D538G cells were seeded at 2×10^5 density per well in 6-well tissue culture-treated plates in DMEM/F12/10% FBS (2 mL total volume). […] The plate was then placed in the Incucyte® S3 Live-Cell Analysis System and images were acquired every 4 hours for a total of 5 days (120 hours). Data were analyzed using the Incucyte® Software v2020C which quantified cell surface area coverage as confluence values. Relative growth was calculated for all timepoints for all growth conditions relative to the confluence value observed for the control at 120 hours. Graphing and statistical analyses were performed using Graphpad Prism (GraphPad Software).

[2] = system: T47D cells; assay: Live-cell imaging growth studies and EC50 for growth inhibition, T47D; assay type: cell-based; details: Homo sapiens, read-out: Approximate Half-maximal Effective Concentration (EC50) for growth inhibition
Protocol: as §1

[3] = system: MCF7 xenograft; assay: MCF7 orthotopic xenograft, combination with PI3K inhibitor alpelisib; assay type: in vivo, NOD/SCID mice
Protocol: (§2) NOD/SCID female mice (Charles River, 6-7 weeks old upon arrival) were implanted with 17b-estradiol 0.72 mg 90-day pellets. The next day, each mouse was implanted with 5×10^6 MCF7 cells/100 mL in the axial mammary fat pad. Compound administration was initiated once the tumors reached 175-200 mm^3. Diet was supplemented with peanut butter to help maintain body weights. Dosing holidays occurred on days 6, 7, 8 and 9 due to body weight loss in some animals in study arms 3 and 4. […] (FIG. 31 and Table 15).
Dosing holidays occurred on days 6, 7, 8 and 9. Error bars represent standard deviation.
(§3) The ratio of Tween 80 to PEG-400 is 0.02 g Tween 80 to 1 ml PEG-400. PEG-400 is added to a pre-aliquoted volume of Tween 80. • For alpelisib: 1% carboxymethylcellulose (CMC), 0.5% Tween 80/DI water (‘CMC/Tween’) Sampling: tumors were measured twice weekly. Terminal sacrifice was ˜18 hr after last dose. Tumor volume calculation: Tumor Volume=(width×width×length)/2, where all measurements are in mm and the tumor volume is in mm^3. Tumor Growth Inhibition (TGI) calculation: TGI (%)

[4] = system: MCF7 cells; assay: Luminescence-based MCF7 cell proliferation assay, dose-response matrix; details: 5 days (120 hours)
Protocol: MCF7 cells were seeded at a density of 2×10^4 cells in 200 μL of media per well in 2 technical replicate, 96-well black, clear-bottom plates and incubated overnight at 37° C. in a 5% CO2 incubator. […] DMSO was used as the vehicle control. The plates were then incubated for 5 days at 37° C. in a 5% CO2 incubator.
The plates were equilibrated to room temperature for approximately 30 minutes. 50 μL of Cell-Titer Glo (Promega) was added to all wells of the plates, covered with aluminum foil and shaken gently by hand for less than 1 minute. The plates were then incubated for 10 minutes at room temperature. Luminescence was recorded using Envision Multi Label Reader. To assess cell viability, luminescence values for drug-treated wells were normalized to average luminescence of vehicle (DMSO) wells to obtain percent viability relative to control cells. The data were analyzed with the Combenefit software.

[5] = system: T47D ESR1 Y537S cells; assay: Live-cell imaging growth studies and EC50 for growth inhibition, T47D ESR1 Y537S; assay type: cell-based; details: Homo sapiens, read-out: Approximate Half-maximal Effective Concentration (EC50) for growth inhibition
Protocol: as §1

[6] = system: MCF7 xenograft; assay: MCF7 orthotopic xenograft, combination with mTOR inhibitor everolimus; assay type: in vivo, NOD/SCID mice
Protocol: as §2, with “[…] per” for “mL”, “weights.” for “weights. Dosing holidays occurred on days 6, 7, 8 and 9 due to body weight loss in some animals in study arms 3 and 4.”, “28” for “31”, “13).” for “15).”
Error bars represent standard deviation.
as §3, with “everolimus: 10% DMSO, 90% (2%” for “alpelisib: 1% carboxymethylcellulose (CMC), 0.5%”, “80, PEG 400) (DMSO/PEG/Tween)” for “80/DI water (‘CMC/Tween’)”

[7] = system: T47D ESR1 D538G cells; assay: Live-cell imaging growth studies and EC50 for growth inhibition, T47D ESR1 D538G; assay type: cell-based; details: Homo sapiens; T47D ESR1 D537G (so in the source); read-out: Approximate Half-maximal Effective Concentration (EC50) for growth inhibition
Protocol: as §1

[8] = system: tamoxifen-resistant MCF7 xenografts; assay: Tamoxifen-resistant MCF7 orthotopic xenograft tumor growth inhibition; assay type: in vivo, Nu/Nu mice
Protocol: Species: Ovariectomized Nu/Nu female mice. Animal handling: Axial mammary fat pad implantation of tamoxifen-resistant tumor fragment (from E45 passage. SC per mouse. Tamoxifen pellet (5 mg, 60-day release) was implanted under the same anesthesia as tumor fragment (pellet—dorsal; tumor—ventral).
Dosing: Oral (gavage), once a day for 28 days (QD×28)
(§4) Sampling: Tumors were measured twice weekly. Terminal sacrifice was ˜18 hr after last dose; tumors were harvested, divided, and flash frozen. ERα levels were determined by immunoblotting (see Appendix 1 for details).

[9] = target: T1, ERα (Homo sapiens, UniProt P03372); assay: ERα levels in tamoxifen-resistant MCF7 xenografts (immunoblot); assay type: in vivo, Nu/Nu mice; details: tamoxifen-resistant MCF7, palbociclib alone 60 mg/kg
T1 construct: robustly degrades ER in ER-positive breast cancer cell lines; endogenous in cells; host or cells: MCF7, T47D (cell culture); MCF7 and tamoxifen-resistant MCF7 xenograft tumours in mice
T1 sequence (P03372 1-595): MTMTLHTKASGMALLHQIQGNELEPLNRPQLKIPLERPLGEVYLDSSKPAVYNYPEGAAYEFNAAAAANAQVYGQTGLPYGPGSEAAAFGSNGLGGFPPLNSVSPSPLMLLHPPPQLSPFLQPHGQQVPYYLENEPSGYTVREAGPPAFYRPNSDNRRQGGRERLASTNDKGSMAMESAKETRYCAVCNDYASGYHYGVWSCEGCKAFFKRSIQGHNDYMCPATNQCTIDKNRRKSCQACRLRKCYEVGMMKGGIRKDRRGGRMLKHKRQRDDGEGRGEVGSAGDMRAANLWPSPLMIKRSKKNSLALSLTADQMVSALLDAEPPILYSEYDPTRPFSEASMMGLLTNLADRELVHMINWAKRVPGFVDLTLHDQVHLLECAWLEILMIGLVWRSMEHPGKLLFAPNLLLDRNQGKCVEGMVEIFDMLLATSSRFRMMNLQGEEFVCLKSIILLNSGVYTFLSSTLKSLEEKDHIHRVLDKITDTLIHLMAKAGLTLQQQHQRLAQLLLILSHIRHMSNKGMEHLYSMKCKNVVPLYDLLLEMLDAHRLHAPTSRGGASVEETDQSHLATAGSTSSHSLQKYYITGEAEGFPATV
Protocol: At study termination, the tumors were removed from the mice, and ERα levels were determined by immunoblotting the tumor homogenates. […] ERα levels from the various compound arms were compared to vehicle-treated animals by analyzing the tumor lysates on separate immunoblots (graphs in FIG. 10, FIG. 11, and FIG. 12 depict data from individual immunoblots) and the average ERα levels with standard deviation is shown.
as §4
Flash frozen tumors were removed from −80° C. storage and placed on dry ice. RIPA lysis buffer and Halt protease inhibitors were used at 400 μl per tumor sample. A steel ball (5 mm) was placed in each sample for tissue disruption. Samples were lysed with TissueLyzer at 24 Hz for 4 minutes. The homogenization was stopped half way through the process and the block flipped over for the duration of the process. […] Lysates were then measured for total protein concentration by BCA (per manufacturer's protocol). […]
Protein was transferred from gels to nitrocellulose with Bio-Rad Turbo on default setting. […] The blots were cut so that beta-actin and ERα can be detected from the same lane/sample. […]

[10] = alpelisib 25 mg/kg oral QD x 19
[11] = everolimus 2.5 mg/kg oral QD x 26
[12] = palbociclib 60 mg/kg oral QD x 28

CCN1CCN(Cc2ccc(Nc3ncc(F)c(-c4cc(F)c5nc(C)n(C(C)C)c5c4)n3)nc2)CC1 [Abemaciclib]
EC50 [1]: 0.04 µM

Cc1nc(NC(=O)N2CCC[C@H]2C(N)=O)sc1-c1ccnc(C(C)(C)C(F)(F)F)c1 [Alpelisib, reference compound]
EC50 [2]: 0.1 µM
Day 19 Tumor Volume (mean ± SD) [3, 10]: 281 ± 37 mm^3
TGI (% vehicle) [3, 10]: 74 % vehicle
tumor growth inhibition (TGI) ([3]; alpelisib 25 mg/kg oral once daily, 19 days, dosing holidays days 6-9): 74%
MCF7 cell proliferation, single agent [4]: dose-dependent decrease
EC50 [1]: 0.1 µM

CO[C@H]1C[C@@H]2CC[C@@H](C)[C@@](O)(O2)C(=O)C(=O)N2CCCC[C@H]2C(=O)O[C@H]([C@H](C)C[C@@H]2CC[C@@H](OCCO)[C@H](OC)C2)CC(=O)[C@H](C)/C=C(\C)[C@@H](O)[C@@H](OC)C(=O)[C@H](C)C[C@H](C)/C=C/C=C/C=C/1C [Everolimus, reference compound]
EC50 [5]: 0.01 µM
EC50 [2]: 0.1 µM
MCF7 cell proliferation, single agent [4]: dose-dependent decrease
Day 26 Tumor Volume (mean ± SD) [6, 11]: 252 ± 50 mm^3
TGI (% vehicle) [6, 11]: 89 % vehicle
tumor growth inhibition (TGI) ([6]; everolimus 2.5 mg/kg oral once daily, 26 days): 89%
EC50 [1]: 0.01 µM
EC50 [7]: 0.01 µM

C[C@H](Nc1ccc2c(c1)OCCn1cc(N3C(=O)OC[C@H]3C(F)F)nc1-2)C(N)=O [GDC-0077]
EC50 [2]: 0.03 µM
MCF7 cell proliferation, single agent [4]: dose-dependent decrease
EC50 [1]: 0.04 µM

CC(=O)c1c(C)c2cnc(Nc3ccc(N4CCNCC4)cn3)nc2n(C2CCCC2)c1=O [Palbociclib, 6-acetyl-8-cyclopentyl-5-methyl-2-{[5-(piperazin-1-yl)pyridin-2-yl]amino}pyrido[2,3-d]pyrimidin-7(8H)-one, reference compound]
Day 28 Tumor volume (mean ± SD) [8, 12]: 222 ± 139 mm^3
TGI (% vehicle) [8, 12]: 91 % vehicle
tumor growth inhibition (TGI) ([8]; tamoxifen-resistant MCF7, palbociclib 60 mg/kg/day oral, 28 days): 91%
effect on tumor ERα levels [9]: did not reduce

CC1(C)CCC(CN2CCN(c3ccc(C(=O)NS(=O)(=O)c4ccc(NCC5CCOCC5)c([N+](=O)[O-])c4)c(Oc4cnc5[nH]ccc5c4)c3)CC2)=C(c2ccc(Cl)cc2)C1 [Venetoclax]
EC50 [1]: 10 µM
